Measured values as given in US20080248511A1, “METHODS TO QUENCH LIGHT FROM OPTICAL REACTIONS” (priority 2007, published 2008).
Like-named read-outs stand apart in the source and are kept apart here.

Tests used:
firefly luciferase [1] = target: T1, firefly luciferase (Photinus pyralis, UniProt P08659); experiment: biochemical; settings: for remaining activity at 0.5 %: read-out: Retained Firefly Luciferase Luminescence (%)
Procedure: (§1) The retained luminescence for each luciferase was calculated by dividing the luminescence in the presence of the detergent by the luminescence in the absence of the test detergent. The selectivity value for each of the test detergents was determined by dividing the retained firefly luciferase luminescence by the retained Renilla luciferase luminescence.
(§2) A set of detergents (Table 2; Sigma-Aldrich) was added at 0.5% (from a 5% or 10% stock solution) to either Luciferase Assay Reagent (Promega) or Renilla Luciferase Assay Reagent (Promega) and allowed to equilibrate at room temperature.
(§3) The firefly luciferase and Renilla luciferase enzymes were diluted as follows. Firefly luciferase was diluted to 14 ng/ml in Phosphate Buffered Saline (PBS) containing 0.1% of the protein carrier Prionex® (Pentapharm). Renilla luciferase was diluted to 10 ng/ml in 1× Renilla Luciferase Lysis Buffer (Promega) containing 0.1% Prionex®. The Renilla Luciferase Lysis Buffer […] detergent micelles when using the Renilla Luciferase Assay Reagent. In the absence of other detergents, this prevents sequestering of coelenterazine which inhibits Renilla luciferase-mediated luminescence.
(§4) The luciferase reactions were initiated by adding 40 μl of either the firefly or Renilla luciferase enzyme solution to 200 μl of the appropriate reagent solution (firefly luciferase enzyme solution+firefly luciferase reagent solution or Renilla luciferase enzyme solution+Renilla luciferase reagent solution, respectively). The reactions were performed in an opaque white, 96-well plate and luminescence was measured for 0.5 seconds per well using a Turner BioSystems Veritas™ Microplate luminometer. The retained firefly luciferase and Renilla luciferase luminescence, as well as the selectivity values for each detergent, were calculated (Table 2).

Renilla luciferase [2] = target: T2, Renilla luciferase (Renilla reniformis, UniProt P27652); experiment: biochemical; type: biochemical; settings: for remaining activity at 0.5 %: read-out: Retained Renilla Luciferase Luminescence (%)
T2 sequence (P27652 1-311): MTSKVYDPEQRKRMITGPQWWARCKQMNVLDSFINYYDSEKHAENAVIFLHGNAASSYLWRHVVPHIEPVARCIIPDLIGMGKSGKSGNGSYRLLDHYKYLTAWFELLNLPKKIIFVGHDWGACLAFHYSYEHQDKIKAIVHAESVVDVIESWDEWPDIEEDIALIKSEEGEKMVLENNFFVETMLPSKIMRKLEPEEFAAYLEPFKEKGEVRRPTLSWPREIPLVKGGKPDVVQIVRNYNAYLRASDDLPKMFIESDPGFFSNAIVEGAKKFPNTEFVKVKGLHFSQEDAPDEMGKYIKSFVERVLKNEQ
Procedure: as §1, §2, §3, §4

Renilla luciferase [3] = target: T2, Renilla luciferase; experiment: Detergent titration with Tergitol NP-9, digitonin or no lysing agent, Renilla luciferase (Example 4); type: biochemical; settings: for remaining activity at 0.0005 % / remaining activity at 0.005 % / remaining activity at 0.05 %: read-out: Relative Renilla Luc Intensity
Procedure: Renilla luciferase-mediated luminescence was measured from samples containing 9.6 mM phosphate buffer pH 6.8, 2.7 mM KCl, 137 mM NaCl (in PBS), 0.1% gelatin, 75 nM coelentrazine (Promega) and 10.2 ng/ml Renilla luciferase. Reactions contained either no lysing agent, 0.5% Tergitol NP-9 or 20 μg/ml digitonin. The detergents to be tested were titrated to 0.05%, 0.005% or 0.0005% in the reactions prior to the addition of the Renilla luciferase. Renilla luciferase-mediated luminescence was measured as described herein.

firefly luciferase [4] = target: T1, firefly luciferase; experiment: Detergent titration with Tergitol NP-9, digitonin or no lysing agent, firefly luciferase (Example 4); type: biochemical; settings: read-out: Relative Firefly Luc Intensity; for remaining activity at 0.0005 %: 0.0005% detergent; for remaining activity at 0.005 %: 0.0050% detergent; for remaining activity at 0.05 %: 0.0500% detergent
Procedure: For measurement of firefly luciferase-mediated luminescence, a solution containing 110 mM HEPES pH 7.5, 8 mM MgSO4, 0.05% gelatin, 7.35 ng/ml firefly luciferase (QuantiLum® Luciferase; Promega) and the content of the Steady-Glo Luciferase Substrate (Promega) at the equivalent of 1×, As in the Renilla luciferase reactions, reactions contained either no lysing agent, 0.5% Tergitol NP-9 or 20 μg/ml digitonin. The same detergents were titrated as described above and firefly luciferase-mediated luminescence was measured.

[5] = retained firefly / retained Renilla, 0.5% detergent
[6] = 0.5% detergent in Luciferase Assay Reagent
[7] = 0.5% detergent in Renilla Luciferase Assay Reagent

T1 sequence (P08659 whole entry): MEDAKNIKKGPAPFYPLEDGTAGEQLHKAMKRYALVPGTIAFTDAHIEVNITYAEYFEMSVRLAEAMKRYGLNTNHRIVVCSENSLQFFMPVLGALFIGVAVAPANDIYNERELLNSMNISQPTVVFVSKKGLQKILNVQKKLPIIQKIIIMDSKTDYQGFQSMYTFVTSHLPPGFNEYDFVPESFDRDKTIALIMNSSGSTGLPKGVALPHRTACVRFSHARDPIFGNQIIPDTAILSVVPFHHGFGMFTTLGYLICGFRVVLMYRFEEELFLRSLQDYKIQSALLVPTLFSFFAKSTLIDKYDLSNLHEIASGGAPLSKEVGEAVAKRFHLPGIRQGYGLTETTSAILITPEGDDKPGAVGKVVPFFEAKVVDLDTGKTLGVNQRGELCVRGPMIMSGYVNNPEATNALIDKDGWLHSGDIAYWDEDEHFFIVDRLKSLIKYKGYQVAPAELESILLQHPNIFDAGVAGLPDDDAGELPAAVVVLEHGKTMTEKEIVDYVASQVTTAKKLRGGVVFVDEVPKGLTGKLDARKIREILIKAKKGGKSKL

In the case of `C[N+](C)(C)CCBr.[Br-]` [(2-Bromoethyl)trimethylammonium bromide], the remaining activity at 0.5 % (firefly luciferase [1]) is reported as 91.4%, the remaining activity at 0.5 % (Renilla luciferase [2]) is reported as 78.4% and the “Selectivity Value” (Renilla luciferase [2]; [5]) is reported as 1.2.
In the case of `C[N+](C)(C)CCCBr.[Br-]` [(3-Bromopropyl)trimethylammonium bromide], the remaining activity at 0.5 % (firefly luciferase [1]; [6]) is reported as 72.2%, the remaining activity at 0.5 % (Renilla luciferase [2]; [7]) is reported as 71.6% and the “Selectivity Value” (Renilla luciferase [2]; [5]) is reported as 1.0.
For `C[N+](C)(C)CCCCCBr.[Br-]` [(5-Bromopentyl)trimethylammonium bromide], the remaining activity at 0.5 % (firefly luciferase [1]; [6]) was 79.1%, the remaining activity at 0.5 % (Renilla luciferase [2]; [7]) was 75% and the “Selectivity Value” (Renilla luciferase [2]; [5]) was 1.1.
`CCCCCCCCCCCCCC[N+](C)(C)Cc1ccccc1.[Br-]` [Benzyldimethyltetradecylammonium bromide] was tested, and the “Selective Inhibition (Ff Luc Inh/Ren Luc Inh)” value (Renilla luciferase [3]; 0.0005% detergent, Dig) was 11.0, the remaining activity at 0.0005 % (Renilla luciferase [3]; 0.0005% detergent, Dig) was 14% and the “Selective Inhibition (Ff Luc Inh/Ren Luc Inh)” value (Renilla luciferase [3]; 0.0005% detergent, Terg) was 1.0. The remaining activity at 0.0005 % (Renilla luciferase [3]; 0.0005% detergent, Terg) was 96%, the “Selective Inhibition (Ff Luc Inh/Ren Luc Inh)” value (Renilla luciferase [3]; 0.0005% detergent, Water) was 10.2 and the remaining activity at 0.0005 % (Renilla luciferase [3]; 0.0005% detergent, Water) was 12%. For the same compound, the “Selective Inhibition (Ff Luc Inh/Ren Luc Inh)” value (Renilla luciferase [3]; 0.0050% detergent, Dig) was 5067, the remaining activity at 0.005 % (Renilla luciferase [3]; 0.0050% detergent, Dig) was 0.03% and the “Selective Inhibition (Ff Luc Inh/Ren Luc Inh)” value (Renilla luciferase [3]; 0.0050% detergent, Terg) was 1.3. The remaining activity at 0.005 % (Renilla luciferase [3]; 0.0050% detergent, Terg) was 70%, the “Selective Inhibition (Ff Luc Inh/Ren Luc Inh)” value (Renilla luciferase [3]; 0.0050% detergent, Water) was 7068 and the remaining activity at 0.005 % (Renilla luciferase [3]; 0.0050% detergent, Water) was 0.01%. The remaining activity at 0.05 % (Renilla luciferase [3]; 0.0500% (w:v) detergent, Terg (0.5% Tergitol NP-9)) was 5%, the “Selective Inhibition (Ff Luc Inh/Ren Luc Inh)” value (Renilla luciferase [3]; 0.0500% detergent, Dig) was 60 and the remaining activity at 0.05 % (Renilla luciferase [3]; 0.0500% detergent, Dig (20 μg/ml digitonin)) was 0.02%. For the same compound, the “Selective Inhibition (Ff Luc Inh/Ren Luc Inh)” value (Renilla luciferase [3]; 0.0500% detergent, Terg) was 10, the “Selective Inhibition (Ff Luc Inh/Ren Luc Inh)” value (Renilla luciferase [3]; 0.0500% detergent, Water) was 451 and the remaining activity at 0.05 % (Renilla luciferase [3]; 0.0500% detergent, Water (no lysing agent)) was 0.02%. For the same compound, the remaining activity at 0.5 % (firefly luciferase [1]; [6]) was 0.21%, the remaining activity at 0.0005 % (firefly luciferase [4]; Dig) was 155% and the remaining activity at 0.0005 % (firefly luciferase [4]; Terg) was 98%. The remaining activity at 0.0005 % (firefly luciferase [4]; Water) was 126%, the remaining activity at 0.005 % (firefly luciferase [4]; Dig) was 128% and the remaining activity at 0.005 % (firefly luciferase [4]; Terg) was 93%. It also gave a remaining activity at 0.005 % (firefly luciferase [4]; Water) of 106%, a remaining activity at 0.05 % (firefly luciferase [4]; Dig (20 μg/ml digitonin)) of 1.4% and a remaining activity at 0.05 % (firefly luciferase [4]; Terg (0.5% Tergitol NP-9)) of 45%. For the same compound, the remaining activity at 0.05 % (firefly luciferase [4]; Water (no lysing agent)) was 10%, the remaining activity at 0.5 % (Renilla luciferase [2]; [7]) was 0.13% and the “Selectivity Value” (Renilla luciferase [2]; [5]) was 1.6.
With `C[C@H](CCC(=O)NCCC[N+](C)(C)CC(O)CS(=O)(=O)[O-])[C@H]1CC[C@H]2[C@@H]3[C@H](O)C[C@@H]4C[C@H](O)CC[C@]4(C)[C@H]3C[C@H](O)[C@]12C` (stereo partly drawn) [CHAPSO] the “Retained Firefly Luciferase Luminescence (%)” value (firefly luciferase [1]; [6]) was 70.07%, the “Retained Renilla Luciferase Luminescence (%)” value (Renilla luciferase [2]; [7]) was 52.15% and the “Selectivity Value” (Renilla luciferase [2]; [5]) was 1.3.
`C[C@H](CCC(=O)NCCC[N+](C)(C)CCCS(=O)(=O)[O-])[C@H]1CC[C@H]2[C@@H]3[C@H](O)C[C@@H]4C[C@H](O)CC[C@]4(C)[C@H]3C[C@H](O)[C@]12C` [CHAPS] was tested, and the “Retained Firefly Luciferase Luminescence (%)” value (firefly luciferase [1]; [6]) was 73.84%, the “Retained Renilla Luciferase Luminescence (%)” value (Renilla luciferase [2]; [7]) was 47.29% and the “Selectivity Value” (Renilla luciferase [2]; [5]) was 1.6.
With `C[N+](C)(C)CCCCCC[N+](C)(C)C` [Hexamethonium bromide] the remaining activity at 0.5 % (firefly luciferase [1]; [6]) was 96%, the remaining activity at 0.5 % (Renilla luciferase [2]; [7]) was 91% and the “Selectivity Value” (Renilla luciferase [2]; [5]) was 1.1.
In the case of `C[C@H](CCC(=O)NCCS(=O)(=O)O)[C@H]1CC[C@H]2[C@@H]3CC[C@@H]4C[C@H](O)CC[C@]4(C)[C@H]3CC[C@]12C` [Taurolithocholic acid], the remaining activity at 0.5 % (firefly luciferase [1]; [6]) is reported as 81.3%, the remaining activity at 0.5 % (Renilla luciferase [2]; [7]) is reported as 75% and the “Selectivity Value” (Renilla luciferase [2]; [5]) is reported as 1.1.
`CCCCCCCC[N+](CCCCCCCC)(CCCCCCCC)CCCCCCCC.[Br-]` [Tetraoctylammonium bromide] was tested, and the remaining activity at 0.5 % (firefly luciferase [1]; [6]) was 43.7%, the remaining activity at 0.5 % (Renilla luciferase [2]; [7]) was 43.1% and the “Selectivity Value” (Renilla luciferase [2]; [5]) was 1.0.
For `[Br-].c1ccc([P+](c2ccccc2)(c2ccccc2)c2ccccc2)cc1` [Tetraphenylphosphonium bromide], the remaining activity at 0.5 % (firefly luciferase [1]; [6]) was 90.9%, the remaining activity at 0.5 % (Renilla luciferase [2]; [7]) was 24.5% and the “Selectivity Value” (Renilla luciferase [2]; [5]) was 3.7.
In the case of `CCCCCCCCCC[N+](C)(C)CCCS(=O)(=O)[O-]` [Zwittergent 3-10], the “Retained Firefly Luciferase Luminescence (%)” value (firefly luciferase [1]; [6]) is reported as 73.92%, the “Retained Renilla Luciferase Luminescence (%)” value (Renilla luciferase [2]; [7]) is reported as 33.45% and the “Selectivity Value” (Renilla luciferase [2]; [5]) is reported as 2.2.
Benzalkonium was tested, and the “Retained Firefly Luciferase Luminescence (%)” value (firefly luciferase [1]; [6]) was 0.20%, the “Retained Renilla Luciferase Luminescence (%)” value (Renilla luciferase [2]; [7]) was 0.04% and the “Selectivity Value” (Renilla luciferase [2]; [5]) was 5.0.
Decamthonium bromide was tested, and the “Retained Firefly Luciferase Luminescence (%)” value (firefly luciferase [1]; [6]) was 85.42%, the “Retained Renilla Luciferase Luminescence (%)” value (Renilla luciferase [2]; [7]) was 76.68% and the “Selectivity Value” (Renilla luciferase [2]; [5]) was 1.1.
In the case of Sodium deoxycholate, the “Retained Firefly Luciferase Luminescence (%)” value (firefly luciferase [1]; [6]) is reported as 39.75%, the “Retained Renilla Luciferase Luminescence (%)” value (Renilla luciferase [2]; [7]) is reported as 60.64% and the “Selectivity Value” (Renilla luciferase [2]; [5]) is reported as 0.7.
For Tergitol NP-9, the “Retained Firefly Luciferase Luminescence (%)” value (firefly luciferase [1]; [6]) was 79.16%, the “Retained Renilla Luciferase Luminescence (%)” value (Renilla luciferase [2]) was 27.14% and the “Selectivity Value” (Renilla luciferase [2]) was 2.9.
s-Acetylthiochloline bromide was tested, and the “Retained Firefly Luciferase Luminescence (%)” value (firefly luciferase [1]; [6]) was 70.97%, the “Retained Renilla Luciferase Luminescence (%)” value (Renilla luciferase [2]; [7]) was 90.65% and the “Selectivity Value” (Renilla luciferase [2]; [5]) was 0.8.
